# In article PMC12814167, “Optimizing Stability in Dynamic Small-Molecule Binding Proteins” (Journal of the American Chemical Society, 2025):
# Where two headings read alike, the source gives them in different places.
# B1: LAO.0: wild type L-lysine/L-arginine/L-ornithine binding protein LAO, Salmonella typhimurium, used as control (protein, UniProt P02911 23-260, looked up)
# Lysine/arginine/ornithine-bind …: ALPQTVRIGTDTTYAPFSSKDAKGEFIGFDIDLGNEMCKRMQVKCTWVASDFDALIPSLKAKKIDAIISSLSITDKRQQEIAFSDKLYAADSRLIAAKGSPIQPTLESLKGKHVGVLQGSTQEAYANDNWRTKGVDVVAYANQDLIYSDLTAGRLDAALQDEVAASEGFLKQPAGKEYAFAGPSVKDKKYFGDGTGVGLRKDDTELKAAFDKALTELRQDGTYDKMAKKYFDFNVYGD
# B2: PotF.0: wild type putrescine-binding protein PotF, Escherichia coli (strain K12), used as control (protein, UniProt P31133 27-370, looked up)
# Putrescine-binding …: AEQKTLHIYNWSDYIAPDTVANFEKETGIKVVYDVFDSNEVLEGKLMAGSTGFDLVVPSASFLERQLTAGVFQPLDKSKLPEWKNLDPELLKLVAKHDPDNKFAMPYMWATTGIGYNVDKVKAVLGENAPVDSWDLILKPENLEKLKSCGVSFLDAPEEVFATVLNYLGKDPNSTKADDYTGPATDLLLKLRPNIRYFHSSQYINDLANGDICVAIGWAGDVWQASNRAKEAKNGVNVSFSIPKEGAMAFFDVFAMPADAKNKDEAYQFLNYLLRPDVVAHISDHVFYANANKAATPLVSAEVRENPGIYPPADVRAKLFTLKVQDPKIDRVRTRAWTKVKSGK
# Experiments:
# LAO.0 = target: T1, LAO.0 (Salmonella enterica, UniProt P02911); assay: Isothermal titration calorimetry of the purified protein with its cognate ligand at 25 °C in SEC running buffer (25 mM sodium phosphate, 500 mM NaCl, pH 7.4), fitted with a one-site binding model.; details: SD, n = 3
# T1 construct: gene argT
# Experimental: (§1) Ligands were dissolved in the specific buffer that was used in the size-exclusion chromatography (SEC) run of each protein purification (stored at −20 °C and thawed on the day of use). All protein and ligand samples were degassed and the temperature equilibrated to 25 °C for at least 10 min using a degassing station (TA Instruments). 400 μL of protein samples was loaded into the sample cell of a low volume AffinityITC machine with gold cell (TA Instruments) and ligand solutions were added into the injection syringe (protein and ligand concentrations can be found in Table S5). ITC measurements were performed at 25 °C with 20 injections of 2.5 μL (one initial injection of 0.5 μL was excluded from analysis), an adaptive injection interval, and stirring rate of 125 rpm. Subtractions of constant heat of dilution values for each ligand, peak integration, and fitting with a one-site binding model were done with NanoAnalyze (TA Instruments). The reported errors reflect the standard deviation of three technical replicas.
# LAO.1 = assay: as above; details: SD, n = 3
# Experimental: as §1
# LAO.2 = assay: as above; details: SD, n = 3
# Experimental: as §1
# LAO.3 = assay: as above; details: SD, n = 3
# Experimental: as §1
# LAO.4 = assay: as above; details: SD, n = 3
# Experimental: as §1
# TphC.0 = assay: as above; details: SD, n = 3
# Experimental: as §1
# TphC.1 = assay: as above; details: SD, n = 3
# Experimental: as §1
# TphC.2 = assay: as above; details: SD, n = 3
# Experimental: as §1
# TphC.3 = assay: as above; details: SD, n = 3
# Experimental: as §1
# TphC.4 = assay: as above; details: SD, n = 3
# Experimental: as §1
# MBP.1 = assay: as above; details: SD, n = 3
# Experimental: as §1
# MBP.2 = assay: as above; details: n = 3
# Experimental: as §1
# MBP.3 = assay: as above; details: SD, n = 3
# Experimental: as §1
# MBP.4 = assay: as above; details: SD, n = 3
# Experimental: as §1
# PotF.2 = details: SD, n = 3
# Experimental: as §1
# PotF.4 = details: SD, n = 3
# Experimental: as §1
# PotF.0 = PotF.0 (Escherichia coli, UniProt P31133); assay: Isothermal titration calorimetry of the purified protein with its cognate ligand at 25 °C in SEC running buffer (25 mM sodium phosphate, 500 mM NaCl, pH 7.4), fitted with a one-site binding model.; details: SD, n = 3
# Experimental: as §1
# PotF.1 = PotF.1 (Escherichia coli, UniProt P31133, A203P/A327P/A339P/E108N/E331D/F129Y/F266Y/F313Y/K122Q/K202N/M131I/N154D/S178A/S252A/S265A/S267T/S326N/T322L/V186I/V264I/V305M/V46I); assay: as above; details: SD, n = 3
# Experimental: as §1
# PotF.3 = PotF.3 (Escherichia coli, UniProt P31133, A339P/E108N/E331D/F129Y/F266Y/K202N/N154D/S178A/S252A/S265A/T94S/V186I); assay: as above; details: SD, n = 3
# Experimental: as §1
# [1] = CD thermal melt (Tmelt) of apo protein; assay type: physicochemical; details: CD at 222 nm, 20 to 95 °C, 1 °C/min, apo protein 0.2 mg/mL, pH 7.4, error from fit uncertainty
# Experimental: To remove salts, protein samples were dialyzed overnight against 2 L of CD buffer (25 mM NaH2PO4/Na2HPO4, pH 7.4) using a 10 kDa molecular weight cutoff. Aggregated protein was removed by centrifugation at 15 000g for 5 min using a tabletop centrifuge (Eppendorf 5427R). Next, the protein concentration was adjusted to 0.3 mg/mL and verified photometrically. 200 μL of protein samples were mixed with either 100 μL of CD buffer or 100 μL of ligand solution (300 μM stocks of ligand solubilized in CD buffer) to reach a final concentration of 100 μM for the ligands and 0.2 mg/mL for the protein. CD spectra and thermal melt experiments were obtained on a JASCO J-1500 instrument using a glass cuvette with a 1 mm path length. For CD spectra, the following settings were used: wavelengths 240–190 nm, bandwidth 1 nm, response time 2 s, data pitch 0.1 nm, scanning speed 100 nm/min, and ten accumulations (for buffer controls only one accumulation was used). For Tmelt measurements, the following settings were used: wavelength of 222 nm, temperature range from 20 to 95 °C controlled by a Pelletier AWC100 (Julabo) using a slope of 1 °C/min, a bandwidth of 1 nm, and a response time of 2 s. Raw CD data were normalized by subtraction of the respective buffer data and subsequent conversion of the measured signal in millidegree to mean residue molar ellipticity. To obtain the apparent melting temperature T m, thermal melt data were fit using a sigmoidal equation according to Niklasson et al. The error plotted stems from the fit function uncertainty.
# [2] = Isothermal titration calorimetry, LAO variants with L-lysine; assay type: binding; details: ITC, 25 °C
# From the text: buffer-lysine 1 - 3 - 300
# Supporting Table 5. Protein and ligand concentrations for ITC measurements
# [3] = set-up: method as in previously published binding constants; details: wild type LAO; ref previously published binding constants; read-out: binding constant; cited from earlier work
# [4] = Isothermal titration calorimetry, PotF variants with putrescine; assay type: binding; details: ITC, 25 °C
# From the text: Protein Design ID Experimental Protein Ligand target repeat concentration concentration (µM) […]
# [5] = set-up: method as in previously published binding constants; details: wild type PotF; ref previously published binding constants; read-out: binding constant; cited from earlier work
# PotF.3, sequence (P31133 27-370 T94S/E108N/F129Y/N154D/S178A/V186I/K202N/S252A/S265A/F266Y/E331D/A339P): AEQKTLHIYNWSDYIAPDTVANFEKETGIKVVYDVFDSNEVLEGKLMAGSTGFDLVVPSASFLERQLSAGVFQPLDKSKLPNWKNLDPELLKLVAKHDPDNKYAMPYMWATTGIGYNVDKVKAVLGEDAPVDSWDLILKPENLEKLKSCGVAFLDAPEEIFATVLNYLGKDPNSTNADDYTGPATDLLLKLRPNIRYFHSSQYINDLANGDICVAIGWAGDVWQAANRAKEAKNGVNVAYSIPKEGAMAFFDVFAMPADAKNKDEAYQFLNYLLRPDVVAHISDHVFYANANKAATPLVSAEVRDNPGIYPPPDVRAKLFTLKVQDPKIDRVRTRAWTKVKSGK
# PotF.1, sequence (P31133 other isoform, or with tags, fused parts or gaps with the stated changes): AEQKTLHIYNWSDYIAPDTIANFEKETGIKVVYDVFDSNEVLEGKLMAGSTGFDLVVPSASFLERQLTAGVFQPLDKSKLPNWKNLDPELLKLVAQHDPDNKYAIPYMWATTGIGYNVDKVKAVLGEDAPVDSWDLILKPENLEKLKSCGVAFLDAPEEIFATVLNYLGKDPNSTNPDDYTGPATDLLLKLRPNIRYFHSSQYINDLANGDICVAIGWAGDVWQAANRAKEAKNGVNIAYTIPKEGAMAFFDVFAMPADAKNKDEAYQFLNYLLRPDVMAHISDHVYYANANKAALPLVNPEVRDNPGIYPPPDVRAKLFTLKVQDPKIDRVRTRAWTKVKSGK
molecule,measurement,setting,value
NCCCC[C@H](N)C(=O)O [L-lysine],Kd,LAO.0,93 ± 35 nM
same,Kd,LAO.1,2500 ± 211 nM
same,Kd,LAO.2,612 ± 56 nM
same,Kd,LAO.3,824 ± 18 nM
same,Kd,LAO.4,150 ± 21 nM
O=C(O)c1ccc(C(=O)O)cc1 [terephthalic acid],Kd,TphC.0,1180 ± 250 nM
same,Kd,TphC.1,5750 ± 709 nM
same,Kd,TphC.2,627 ± 69 nM
same,Kd,TphC.3,716 ± 91 nM
same,Kd,TphC.4,282 ± 39 nM
maltose,Kd,MBP.1,1310 ± 293 nM
same,Kd,MBP.2,< 10000 nM
same,Kd,MBP.3,450 ± 44 nM
same,Kd,MBP.4,2960 ± 675 nM
NCCCCN [putrescine],Kd,PotF.2,42 ± 12 nM
same,Kd,PotF.4,103 ± 10 nM
same,Kd,PotF.0,42 ± 3 nM
same,Kd,PotF.1,479 ± 12 nM
same,Kd,PotF.3,101 ± 17 nM
B1,apparent T m,[1],47 ± 0.1 °C
same,apparent T m,[1]; listed as LAO,47 °C
same,-TΔS,[2],3.56 ± 0.382 kcal/mol
same,ΔG,[2],-9.61 ± 0.22 kcal/mol
same,ΔH,[2],-13.2 ± 0.22 kcal/mol
same,Kd,[3],232 ± 106 nM
B2,apparent T m,[1],63 ± 0.4 °C
same,apparent T m,[1]; listed as PotF,63 °C
same,-TΔS,[4],11.2 ± 0.287 kcal/mol
same,ΔG,[4],-10.1 ± 0.048 kcal/mol
same,ΔH,[4],-21.2 ± 0.263 kcal/mol
same,Kd,[5],68 ± 40 nM
